The test system of data set [1] is HIV-1 strain IIIB. Nature of the data set: Retrovirucidal effect on HIV-1 strain IIIB (Table 3). It is filed as cell-based. The gist of the method:
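Virus (100 TCID50 HIV-1 in cell supernatant) exposed to compound 3 h at room temperature, then washed free of compound by membrane filtration. Residual infectivity measured on P4 cells after one day as β-galactosidase activity with MUG substrate (3 h, 37° C), read by fluorescence.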

Data set [2] deals with HIV-1 strain 103 N. Description: Retrovirucidal effect on HIV-1 strain 103 N (Table 3). The format is cell-based. The gist of the method:
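HIV-1 103N (RT K103N mutant; 100 TCID50) was exposed to inhibitor for 3 h at room temperature and then washed free of compound by membrane filtration. Residual infectivity was measured on P4 cells: one day after infection, β-galactosidase was read by MUG fluorescence after 3 h at 37 °C.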

Data set [3] in a line: Antiviral activity on HIV-LAI wild type. It is filed as cell-based, HIV-1. The following applies: HIV-LAI wild type test. The procedure:
(§1) The antiviral activity, the expression and purification of the recombinant HIV-RT enzyme, the reverse transcriptase activities and the inhibition of RT were evaluated as described in WO 97/05 113.
(§2) The antiviral activity of the compounds according to example 1 has been tested on various strains.

The test system of data set [4] is HIV-LAI wild type. Description: Antiviral activity on HIV-LAI wild type. It is filed as cell-based, HIV-1. The following applies: HIV-LAI wild type. On the procedure:
as §1, §2

A short description of data set [5]: Antiviral activity on HIV-1 nevirapine resistant strain. It is filed as cell-based. Conditions: HIV-1 novirapine resistant strain test. On the procedure: as §1
(§3) On an HIV-1 novirapine resistant strain the activities of the compound of example 1 are as follows: […]

In data set [6] the test system is HIV-1 novirapine resistant strain. The data set is described as above. The format is cell-based. The following applies: Human immunodeficiency virus 1. The procedure: as §1, §3
The nature of data set [7]: Anti HIV-1 activity, HIV-1 IIIB in MT4 cells. The format is cell-based. Conditions: human; HIV-1 IIIIB/MT4. On the procedure:
as §1
(§4) The compound of example 1 has been also tested on various HIV strains and primary cell cultures. The table 1 illustrates the activity of this compound on these strains.

The test system of data set [8] is HIV-1 IIIIB/MT4. Description: Anti HIV-1 activity, HIV-1 IIIB in MT4 cells. The format is cell-based. The following applies: Human immunodeficiency virus 1. On the procedure: as §1, §4
Data set [9] deals with HIV-1 AZTres./MT4. Description: Anti HIV-1 activity, HIV-1 AZT-resistant strain in MT4 cells. It is filed as cell-based. Conditions: Human immunodeficiency virus 1, MT4. On the procedure: as §1, §4
The nature of data set [10]: Anti HIV-1 activity, HIV-1 IIIB in PBMC. Conditions: HIV-1 IIIB/PBMC. The format is cell-based. On the procedure: as §1, §4
The test system of data set [11] is HIV-1 IIIB/PBMC. Nature of the data set: Anti HIV-1 activity, HIV-1 IIIB in PBMC. The format is cell-based. The following applies: Human immunodeficiency virus 1. On the procedure: as §1, §4
Data set [12] in a line: Anti HIV activity, HIV-2 D 194 in PBMC. The format is cell-based. The following applies: HIV-2 D 194/PBMC. The procedure:
as §1, §4

Data set [13] concerns HIV-2 D 194/PBMC. Nature of the data set: Anti HIV activity, HIV-2 D 194 in PBMC. The format is cell-based. The following applies: Human immunodeficiency virus 2. On the procedure:
as §1, §4

Data set [14] in a line: Anti HIV-1 activity, HIV-1 Bal in monocytes/macrophages. It is filed as cell-based. Conditions: HIV-1 Bal/Mono/macrophages. The procedure:
as §1, §4

For data set [15], the system named is HIV-1 Bal/Mono/macrophages. Described as above. It is filed as cell-based. The following applies: Human immunodeficiency virus 1, Macrophage. The procedure: as §1, §4
For data set [16], the system named is HIV-ILai isolate. Description: Retrovirucidal effect (residual infectivity on P4 cells). It is filed as cell-based, HIV-1. Conditions: 3 hours with virions. The procedure:
The retrovirucidal effect and the reverse transcription were measured as described hereinafter.
HIV-1 viral suspensions were obtained by coculture of MT4 cells and H9 cells chronically infected by HIV-ILai isolate. 200 μl of a cell supernatant containing viral particles (HIV-ILai: 100 TCID50) were incubated at room temperature with various concentrations of different inhibitors. After 3 hours, virions were washed through 0.02 μm anopore membrane in 1.5 mL Vectaspin tube (Whatman) for 10 minutes at 5 000 g. Each of the three subsequent washes was performed in the same conditions after the viral concentrate was refilled with 500 μL of RPMI medium. Then, the viral concentrate was readjusted to the initial volume with RPMI plus 10% foetal calf serum (FCS). The residual infectivity was assayed on P4 cells as described by CHARNEAU et al. (1994, J. Mol. Biol., 241, 651-662). Briefly, P4 cells were plated using 100 μL of DMEM medium plus 10% FCS in 96 plate multi-wells at 20×10^5 cells per mL. After overnight incubation at 37° C., the supernatant was discarded and the viral preparation (200 μL) was added. One day later the wells were washed three times in PBS. Each well was refilled with 200 μL of a reaction buffer containing 50 mM Tris-HCl pH 8.5, 100 mM 2-mercaptoethanol, 0.05% Triton X-100 and 5 mM 4-methylumbelliferyl β-D-galactopyranoside (MUG). After 3 hours at 37° C., the level of the reaction was measured in a fluorescence microplate reader.
The retrovirucidal effect of the compound according to example 1 has been tested.

For data set [17], the target named is T1, recombinant HIV-RT enzyme (Human immunodeficiency virus type 1 group M subtype B, UniProt P03366).
T1 construct: the recombinant HIV-RT enzyme; made in house
Nature of the data set: Inhibition of the reverse transcriptase. It is filed as biochemical. The procedure: as §1
The IC50 of the compound of example 1 for the inhibition of the reverse transcriptase is 20 nM.

[18] abbreviates: HIV-1 strain 103N (RT Lys-103 to Asn mutant), pIC50=-log IC50, IC50 in M.

Where only a bound is given, the exact number is not on record here.

For `CCc1c(C)[nH]c(=O)c(N(C)C)c1C(=O)c1cc(Br)cs1` [Compound 187], the “HIV1 pIC50 strain IIIB” value in data set [1] (pIC50=-log IC50, IC50 in M) was found to be 8.481. Moreover, the “HIV1 pIC50 strain 103N” value in data set [2] (setting [18]) stood at 7.006.
In the same order, the values of `CCc1c(C)[nH]c(=O)c(N(C)C)c1Cc1cc(Cl)cc(Cl)c1` [Compound 191] are 8.097 and 7.553.
In the same order, the values of `CCc1c(C)[nH]c(=O)c(N(C)C)c1C(=O)c1cc(Cl)cc(Cl)c1` [Compound 192] are 8.699 and 8.319.
The matching figures for `CCc1c(C)[nH]c(=O)c(N(C)C)c1Sc1cccc(Br)c1` [Compound 193]: 8.481 and 7.245.
Regarding `CCc1c(C)[nH]c(=O)c(N(C)C)c1Oc1cc(C)cc(C)c1` [Compound 201], the “HIV1 pIC50 strain IIIB” value in data set [1] (retrovirucidal effect, pIC50=-log IC50 (M)) worked out at 8.585. Moreover, the “HIV1 pIC50 strain 103N” value in data set [2] (retrovirucidal effect, HIV-1 strain 103N (Lys-103 to Asn RT mutant), pIC50=-log IC50 (M)) is given as 7.231.
The term CC50 denotes the concentration that lowers cell viability or growth by half. A lower CC50 goes with harm at low concentration. As a reminder, the IC50 is the concentration at which inhibition is half-maximal. Usually inhibition stands for the share of the control response that was lost under treatment. Consider `CCc1c(C)[nH]c(=O)c(N(C)C)c1Cc1cc(C)cc(C)c1` [Example 1, 3-dimethylamino-4-(3,5-dimethylbenzyl)-5-ethyl-6-methylpyridin-2(1H)-one], for which the CC50 in data set [3] is more than 100000 nM; in [5], more than 10000 nM; in [7], more than 1000 nM; in [10], more than 1000 nM; in [12] it was more than 1000 nM; in data set [14] it was more than 1000 nM. In [4], the S.I. is on record as more than 33.333. Moreover, the IC50 in data set [4] (Human immunodeficiency virus 1) was 0.2 nM; in [6], more than 10000 nM; in [8], 2.4 nM; in [9], 0.2 nM; in data set [11], 0.58 nM; in data set [13], more than 1000 nM. Moreover, the IC50 came out at 0.004 nM in data set [15] and 20 nM in data set [17]. Besides, the “% inhibition of infectivity” value in data set [16] (1 μm compound) was 83%; in [16] (10 μm compound), 99%. The same molecule yielded an inhibition at 0.01 µM in [16] (Human immunodeficiency virus 1, 10 nM compound) of 26%. For the same molecule, at 0.1 µM the inhibition in data set [16] (Human immunodeficiency virus 1, 100 nM compound) was 46%.

The values are drawn from US6683079B2, “3-(amino-or aminoalkyl) pyridinone derivatives and their use for the treatment of HIV related diseases” (Centre National de la Recherche Scientifique, priority 1998, dated 2004).
